The record followed here is BindingDB's records for doi:10.3109/14756366.2012.750311 (Atatürk University, 2014).

One assay deals with Carbonic anhydrase 1 (Homo sapiens, UniProt P00915). Description: Hydratase and Esterase Activity Assays. The method, then:
(§1) The effect of novel sulfonamides 28-33 on HCA isozyme activity was determined colorimetrically using CO2-hydration method of Wilbur and Anderson29 described previously [G l in et al., Biol. Pharm. Bull., 27:613-16]. Esterase activity was determined according to the method described by Verpoorte et al [Verpoorte et al., J. Biol. Chem., 242:4221-9].

Another assay concerns the target Carbonic anhydrase 2 (Homo sapiens, UniProt P00918). In words: Hydratase and Esterase Activity Assays. The protocol:
as §1

Carbonic anhydrase 1, sequence (P00915 whole entry): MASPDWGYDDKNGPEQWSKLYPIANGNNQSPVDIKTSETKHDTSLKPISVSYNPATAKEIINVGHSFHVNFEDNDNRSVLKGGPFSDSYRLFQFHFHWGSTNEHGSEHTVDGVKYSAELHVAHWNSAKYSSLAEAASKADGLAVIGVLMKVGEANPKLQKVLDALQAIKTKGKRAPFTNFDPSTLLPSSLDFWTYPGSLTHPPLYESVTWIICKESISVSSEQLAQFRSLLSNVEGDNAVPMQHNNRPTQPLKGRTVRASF

On to `COc1cc2c(cc1OC)CC(NS(C)(=O)=O)C2` [N-(5,6-dimethoxy-2,3-dihydro-1H-inden-2-yl)methanesulfonamide (32)], for which, on Carbonic anhydrase 1, half-maximal inhibition (IC50) required 266 µM and the Ki – broadly, a measure of affinity in units of concentration, obtained from inhibition or displacement – turned out to be 46 µM. For the same compound, the Ki on Carbonic anhydrase 2 was 372 µM.
For the compound `CS(=O)(=O)NC1CCc2ccccc2C1` (stereo not given) [N-(1,2,3,4-tetrahydronaphthalene-2-yl)methanesulfonamide (31)], the Ki at Carbonic anhydrase 1 was determined as 228 µM. In addition, on Carbonic anhydrase 2, the IC50 (usually the concentration at which inhibition is half-maximal) worked out at 338 µM and the Ki was determined as 94 µM.
In the case of `CS(=O)(=O)NC1Cc2ccccc2C1` [N-(Indane-2-yl)methanesulfonamide (33)], the Ki on Carbonic anhydrase 1 is 104 µM; on Carbonic anhydrase 2 it was 170 µM.
The like results for `COc1cccc2c1CCCC2NS(C)(=O)=O` (stereo not given) [N-(5-metoksi-1,2,3,4-tetrahydronaphthalene-1-yl)methanesulfonamide (30)] were, in that order, 185 µM and 112 µM.
On Carbonic anhydrase 1, `COc1cc2c(cc1OC)C(NS(C)(=O)=O)CC2` (stereo not given) [N-(5,6-dimethoxyindane-1-yl)methanesulfonamide (28)] yielded an IC50 of 487 µM and a Ki of 52 µM. This compound also displayed a Ki on Carbonic anhydrase 2 of 215 µM.
Consider `CS(=O)(=O)NC1CCc2ccccc21` (stereo not given) [N-(Indane-1-yl)methanesulfonamide (29)], for which the Ki on Carbonic anhydrase 1 is 173 µM; at Carbonic anhydrase 2, 211 µM.
